The source of these data is PubChem BioAssay AID1549 (Sanford-Burnham Center for Chemical Genomics, 2009).

Active and inactive are the calls of the source. How the calls were made is not given here.

In this test the target is Influenza A virus M2 proton channel (A/TW/4845/1999 H1N1). Kind of test: M2 proton channel binding, NMR based, influenza A virus H1N1 strain (AID 1549). The settings on record: NMR binding screen, M2 protein.
Broadly, the Kd is the free concentration of one partner at which half of the binding sites on the other are occupied at equilibrium, for simple one-to-one binding. Regarding `CC(C)=CCc1c(O)cc(C)oc1=O`, the Kd was > 4 mM (inactive). With `Cc1nn2c3ccccc3nc2n(Cc2ccccc2)c1=O` the figure was > 4 mM (inactive). For `O=C(Nc1nncs1)c1c(F)c(F)c(F)c(F)c1F`, the Kd was > 4 mM (inactive).

Regarding `CC(=O)Nc1ccc(NC(=O)N2CCOCC2)cc1`, the Kd is > 4 mM (inactive).

Consider `CCOC(=O)C1C(C=C(C)C)C1(C)C` (centres undefined), for which the Kd was > 4 mM (inactive).

As for `Nc1cccc(-n2cnnn2)c1`, the Kd is > 4 mM (inactive). The same measure for `Cn1nnc2cc(C(=O)O)ccc21`: > 4 mM (inactive); for `NC(=O)C1CCN(c2ccc(Cl)nn2)CC1`: > 4 mM (inactive). The same measure for `NCc1ccc(N2CCOCC2)cc1`: > 4 mM (inactive); for `O=C(Oc1ccc2c(c1)CCC2)N1CCOCC1`: > 4 mM (inactive). The same measure for `O=C1c2ccccc2-c2ncnc3cccc1c23`: > 4 mM (inactive); for `O=C(O)c1ccc(CSc2ncn[nH]2)cc1`: > 4 mM (inactive); for `C=C(C)[C@H]1COc2cc3oc(=O)ccc3cc2O1`: > 4 mM (inactive). Take `Cc1ccc(-c2nnc3sc(-c4ccncc4)nn23)cc1`: the Kd was > 4 mM (inactive). The same measure for `O=C(NN1CCOCC1)c1ccccc1F`: > 4 mM (inactive). With `Clc1ccc(SCCn2cncn2)cc1` the figure was > 4 mM (inactive); with `Nc1nnc(Cc2ccc(Cl)cc2)s1`, > 4 mM (inactive); with `O=C(O)c1ccc2sccc2c1`, > 4 mM (inactive). With `CC(=O)c1cc(-c2nc3ccccc3n2C)n(C)c1` the figure was > 4 mM (inactive).

For the compound `COc1ccc(-c2nnc(-c3ccc(N)cc3)o2)cc1`, the Kd was > 4 mM (inactive). As to `Oc1ccccc1N1CCOCC1`, the Kd is > 4 mM (inactive). For `COC(=O)[C@H]1[C@H]2C[C@H]3c4[nH]c5ccccc5c4CCN3C[C@H]2CC[C@@H]1O`, the Kd is > 4 mM (inactive).

With `CCN1CCC(NC2CCCCNC2=O)CC1` (centres undefined), the Kd was > 4 mM (inactive). Consider `CC(O)C(=O)N/N=C/c1cccs1` (centres undefined), for which the Kd is > 4 mM (inactive). The same measure for `O=C(c1ccccc1)c1ccc(N2CCNCC2)cc1`: > 4 mM (inactive). With `CN(C)N1C(=O)c2ccccc2C1=O` the figure was > 4 mM (inactive); with `Cc1occc1C(=O)Nc1ccc(C(N)=O)cc1`, > 4 mM (inactive); with `CN(C)C(=O)CSc1nc(N)cc(=O)[nH]1`, > 4 mM (inactive). The same measure for `NC(=O)c1cc2c(n(-c3ccccc3)c1=O)CCCC2=O`: > 4 mM (inactive); for `Cc1ccc2cc(C(=O)O)ccc2n1`: > 4 mM (inactive); for `O=S1(=O)NC(=NCc2ccccc2)c2ccccc21`: > 4 mM (inactive). On to `NC12CC3CC(C1)CC(CC(=O)O)(C3)C2`, for which the Kd is > 4 mM (inactive).

`COc1c2c(cc3c1OCO3)C13C=C[C@H](OC)CC1N(C2)CC3O` (some centres undefined): the Kd was > 4 mM (inactive). The same measure for `O=c1/c(=C/c2cccs2)sc2ncnn12`: > 4 mM (inactive); for `O=C1C2C3C=CC(C3)C2C(=O)N1c1nccs1` (centres undefined): > 4 mM (inactive).

Take `OCCCc1nc2ccc(C(F)(F)F)cc2[nH]1`: the Kd is > 4 mM (inactive).

For the compound `O=C1CC(=O)N2N=C(c3ccccc3)SC2=N1`, the Kd is > 4 mM (inactive). With `CCOc1ccc(-c2c(=O)n(O)c3ccccc3[n+]2[O-])cc1` the figure was > 4 mM (inactive); with `CC(C)(C)P(=O)(O)c1ccccc1`, > 4 mM (inactive); with `Cn1ccnc1SCc1cc(=O)[nH]c2ccccc12`, > 4 mM (inactive). In the case of `OCC1CCN(Cc2ccccc2)CC1`, the Kd was > 4 mM (inactive). Take `CNc1nc(C)nc(-n2nc(C)cc2C)n1`: the Kd was > 4 mM (inactive). As to `COc1ccccc1NC(=O)/C=N/O`, the Kd is > 4 mM (inactive). With `COC(=O)CSc1nnc(-c2ccc(C(=O)O)cc2)o1` the figure was > 4 mM (inactive); with `O=C(c1ccco1)N1CCn2c1nc1ccccc12`, > 4 mM (inactive); with `CCNCC(O)c1ccc([N+](=O)[O-])cc1` (centres undefined), > 4 mM (inactive).

On to `CC1SC(=NC(=O)c2ccco2)NC1=O` (centres undefined), for which the Kd is > 4 mM (inactive).

For `CC(=O)N1CCN(c2ccc(O)cc2)CC1`, the Kd is > 4 mM (inactive).

With `CC(=O)Oc1c(C)c(C)c2c(c1C)CCC(C)(CCCC(C)CCCC(C)CCCC(C)C)O2` (centres undefined), the Kd is > 4 mM (inactive). With `O=C(Nc1ccccc1)C(=O)NC1CC1` the figure was > 4 mM (inactive); with `Cc1noc(-c2ccccc2)c1C(=O)O`, > 4 mM (inactive). With `N/N=C1\CCCc2c1no[n+]2[O-]` the figure was > 4 mM (inactive); with `Cc1nnc(SCc2ccc(F)cc2)s1`, > 4 mM (inactive); with `OCc1cccs1`, > 4 mM (inactive). The same measure for `Cc1nc(-c2ccccc2)sc1C(N)=O`: > 4 mM (inactive). Consider `O=C1CCCc2c1nc(-c1ccccc1)n2O`, for which the Kd is > 4 mM (inactive). With `COc1ccc(NC(=O)c2ccc[n+]([O-])c2)cc1`, the Kd was > 4 mM (inactive). `O=C1CCNc2cc3ccccc3cc21`: the Kd was > 4 mM (inactive). The same measure for `O=C(O)c1ccc(-n2ccnc2)cc1`: > 4 mM (inactive); for `Nc1ccc(F)cc1F`: > 4 mM (inactive). With `Cc1oc(-c2ccccc2)cc1C(N)=O` the figure was > 4 mM (inactive); with `COC1=CC23CCCN2CCc2cc4c(cc2C3C1O)OCO4` (centres undefined), > 4 mM (inactive). The same measure for `CC(=O)Oc1ccc(O)cc1`: > 4 mM (inactive); for `CCn1ncc(Cl)c1C(=O)Nc1ccncc1`: > 4 mM (inactive). For `Cc1occc1C(=O)Nc1nccs1`, the Kd is > 4 mM (inactive). The same measure for `CCCn1cnc2sc(C(N)=O)c(C)c2c1=O`: > 4 mM (inactive); for `S=C(Cc1cccnc1)N1CCOCC1`: > 4 mM (inactive). The same measure for `CC1Cc2nc(SCC(N)=O)n(C)c(=O)c2S1` (centres undefined): > 4 mM (inactive); for `O=C(O)CC[N+](=O)[O-]`: > 4 mM (inactive); for `Cc1nc(-c2cc(CO)no2)cs1`: > 4 mM (inactive).

Turning to `CCOC(=O)Cn1cnc2sc3c(c2c1=O)CCC3`, the Kd was > 4 mM (inactive). The same measure for `O=C1CSC(=Nc2cccc(C(=O)O)c2)N1`: > 4 mM (inactive); for `CC(CC(=O)O)n1cccn1` (centres undefined): > 4 mM (inactive); for `CC(=O)Oc1c2c(c(CC=C(C)C)c3c1C(=O)C1=C[C@@H]4CC5C(C)(C)OC(C/C=C(\C)C(=O)O)(C4=O)[C@@]15O3)OC(C)(CCC=C(C)C)C=C2` (some centres undefined): > 4 mM (inactive). On to `NC(=O)C1CCN(C(=O)c2ccco2)CC1`, for which the Kd is > 4 mM (inactive). With `Clc1ccc(-n2ccnc2)nn1` the figure was > 4 mM (inactive); with `Cc1noc(C)c1C(=O)N1CCc2ccccc21`, > 4 mM (inactive); with `CCOC(=O)C1C(=O)C2CCN1CC2` (centres undefined), > 4 mM (inactive).

In the case of `c1ccc(SCc2nc(-c3ccccn3)no2)cc1`, the Kd was > 4 mM (inactive). The same measure for `CN(C)C(=O)c1ccc(-c2n[nH]c(=O)c3ccccc23)cc1`: > 4 mM (inactive); for `O=C(NC(=S)NC1CCSC1=O)c1ccco1` (centres undefined): > 4 mM (inactive); for `CNC(=O)c1c(O)c2ccccc2[nH]c1=O`: > 4 mM (inactive). The same measure for `Nc1cc(C(F)(F)F)ccc1N1CCOCC1`: > 4 mM (inactive); for `Oc1ccc(-c2n[nH]c(=S)n2Cc2ccco2)cc1`: > 4 mM (inactive). The same measure for `CC(=O)NN1C(=O)/C(=C\c2ccc(O)cc2)SC1=S`: > 4 mM (inactive).

As to `CCCNC(CC(=O)Nc1cccnc1)C(=O)O` (centres undefined), the Kd is > 4 mM (inactive).

As for `CC(=O)c1ccc(Cc2cnc(N)s2)cc1`, the Kd is > 4 mM (inactive).

In the case of `Cc1nc(-c2cccc(-c3noc(C)n3)c2)no1`, the Kd was > 4 mM (inactive).

As for `CCn1nnc2c(NCc3ccccn3)ncnc21`, the Kd is > 4 mM (inactive). With `NC(=O)CSc1nnc2ccc(-c3ccccn3)nn12` the figure was > 4 mM (inactive); with `Nc1ccccc1OC(F)(F)F`, > 4 mM (inactive); with `CCOc1ccc(C)cc1S(=O)(=O)n1ccc(C)n1`, > 4 mM (inactive). The same measure for `CSc1nc2nc(C)cc(=O)n2[nH]1`: > 4 mM (inactive); for `Cn1c(=O)cc(N2CCCCC2)[nH]c1=O`: > 4 mM (inactive). With `Nc1ccc2[nH]ccc2c1` the figure was > 4 mM (inactive); with `O=[N+]([O-])c1ccc(/C=N/c2ncn[nH]2)cc1`, > 4 mM (inactive).

`CC(=O)N1CCC(NC2CCCCCC2)CC1`: the Kd is > 4 mM (inactive).

Take `NC(=O)CN1CC(=O)NC(=O)C1`: the Kd is > 4 mM (inactive). The same measure for `Cc1nccn1CCC(=O)O`: > 4 mM (inactive); for `CCOc1ccc2nc(NS(C)(=O)=O)sc2c1`: > 4 mM (inactive); for `Cn1c(SCC(=O)NCCO)nc2ccccc2c1=O`: > 4 mM (inactive).

Turning to `COc1ccc(-c2cc(=O)c3c(OC)c(OC)c(OC)c(OC)c3o2)cc1`, the Kd was > 4 mM (inactive). The same measure for `Cn1cc(Cl)c(C(=O)Nc2ccncc2)n1`: > 4 mM (inactive). For `Cc1ccc2c(c1)CCCN2C(=O)c1ccncc1`, the Kd is > 4 mM (inactive). `Cc1ccccc1NS(=O)(=O)c1ccc(F)cc1`: the Kd is > 4 mM (inactive).

Take `Cc1cc(C)n2nc(NCc3ccccc3)nc2n1`: the Kd was > 4 mM (inactive). The same measure for `NC(CSCSCC(N)C(=O)O)C(=O)O` (centres undefined): > 4 mM (inactive); for `Cc1ccc(-n2[nH]c(C)cc2=O)cc1`: > 4 mM (inactive). The same measure for `OCc1csc(-c2ccccc2)n1`: > 4 mM (inactive).
